# Laboratory results: patent publication US12320800B2, “High-throughput automation of organoids for identifying therapeutic strategies” (UNIVERSITY OF WASHINGTON, priority 2018, dated 2025)
# pKd: −log10 of the molar value.
# How the values were obtained:
# [1] = system: PKD1−/− and PKD2−/− mutant organoids; experiment: Prophylactic effect of myosin activators on cyst formation in PKD organoids in suspension; type: cell-based, human
# From the text: Cyst formation. In adherent cultures (untreated), ‘cysts’ were identified as large, balloon-like, translucent structures that swayed in response to agitation. Flat rings and dilated tubules were not counted as cysts and occasionally appeared even in non-PKD controls. […] Wells were imaged using a Nikon TiE inverted wide-field microscope and cysts were quantified using ImageJ cell counter. To generate large cysts in suspension, adherent organoids were microdissected with a 23-gauge syringe needle from 24-well plates on an inverted phase-contrast microscope, and carefully transferred using a transfer pipette into a low-adhesion 6-well plate (Corning) containing 2 ml RB. The organoids were isolated on the twenty-first day of differentiation, before cysts formed. RB media was changed by gravity every three days, and cystogenesis was assessed at two weeks after replating.
# EMD was efficient at rescuing cyst formation at the lowest dose tested (3 μM) and worked in both PKD1^−/− and PKD2^−/− mutant organoids.
# [2] = cited from earlier work
# [3] = system: late-stage PKD organoids; experiment: Regression of pre-existing cysts in late-stage PKD organoids; type: cell-based, human; conditions: one week
# From the text: Reduction of pre-existing cysts would be a major advantage over tolvaptan. In an acute setting, EMD could be used to reduce pain from swollen cysts, and in a chronic setting it could potentially reverse the course of disease.
# [4] = system: PKD organoids; experiment: Live-dead viability analysis of PKD organoids after EMD treatment; type: cell-based, human; conditions: 10 μM for two weeks
# Description: To assess potential toxicity in human organoids, morphology was examined by phase-contrast microscopy during the treatment time course and performed a live-dead analysis of organoids at the endpoint of treatment (10 μM EMD for two weeks).
# [5] = target: myosin motor domain; conditions: allosteric pocket of the myosin motor domain; cited from earlier work
# [6] = system: liver cells; conditions: in vitro; cited from earlier work
# [7] = target: β-cardiac myosin (Homo sapiens, UniProt P12883); conditions: read-out: AC50, actomyosin ATPase activity; cited from earlier work
# [8] = canines, orally administered, optimized for dissolution; cited from earlier work
# [9] = system: skeletal muscle myosin; conditions: read-out: AC50, actomyosin ATPase activity; cited from earlier work
# [10] = system: non-cardiac myosin II; conditions: cited from earlier work
# [11] = system: PKD1RC/RC mouse; experiment: EMD pilot trial in PKD1RC/RC mouse; type: in vivo; conditions: for survival, distress and adverse effects: 5 mg/kg
# Description: Efficacy In Vivo: To reproduce EMD's effects in an animal model, small pilot trial was performed in the PKD1RC/RC mouse. Animals at five months of age, a time point where cysts have already formed, were injected intraperitoneally with EMD four times over 2.5 weeks (FIG. 24A). EMD was dissolved in 400 μL PBS solution at 5 mg/kg (˜25 μM in mouse blood).
# These animals were sacrificed and analyzed their kidney tissue.
# [12] = system: myosin; conditions: Table 5 listing; cited from earlier work
# [13] = expected value, WT control or EMD, Aim 1
# [14] = 5 mg/kg intraperitoneally, four times over 2.5 weeks
# [15] = high dose (5 mg/kg) applied repeatedly
# Sequence of β-cardiac myosin (P12883 whole entry): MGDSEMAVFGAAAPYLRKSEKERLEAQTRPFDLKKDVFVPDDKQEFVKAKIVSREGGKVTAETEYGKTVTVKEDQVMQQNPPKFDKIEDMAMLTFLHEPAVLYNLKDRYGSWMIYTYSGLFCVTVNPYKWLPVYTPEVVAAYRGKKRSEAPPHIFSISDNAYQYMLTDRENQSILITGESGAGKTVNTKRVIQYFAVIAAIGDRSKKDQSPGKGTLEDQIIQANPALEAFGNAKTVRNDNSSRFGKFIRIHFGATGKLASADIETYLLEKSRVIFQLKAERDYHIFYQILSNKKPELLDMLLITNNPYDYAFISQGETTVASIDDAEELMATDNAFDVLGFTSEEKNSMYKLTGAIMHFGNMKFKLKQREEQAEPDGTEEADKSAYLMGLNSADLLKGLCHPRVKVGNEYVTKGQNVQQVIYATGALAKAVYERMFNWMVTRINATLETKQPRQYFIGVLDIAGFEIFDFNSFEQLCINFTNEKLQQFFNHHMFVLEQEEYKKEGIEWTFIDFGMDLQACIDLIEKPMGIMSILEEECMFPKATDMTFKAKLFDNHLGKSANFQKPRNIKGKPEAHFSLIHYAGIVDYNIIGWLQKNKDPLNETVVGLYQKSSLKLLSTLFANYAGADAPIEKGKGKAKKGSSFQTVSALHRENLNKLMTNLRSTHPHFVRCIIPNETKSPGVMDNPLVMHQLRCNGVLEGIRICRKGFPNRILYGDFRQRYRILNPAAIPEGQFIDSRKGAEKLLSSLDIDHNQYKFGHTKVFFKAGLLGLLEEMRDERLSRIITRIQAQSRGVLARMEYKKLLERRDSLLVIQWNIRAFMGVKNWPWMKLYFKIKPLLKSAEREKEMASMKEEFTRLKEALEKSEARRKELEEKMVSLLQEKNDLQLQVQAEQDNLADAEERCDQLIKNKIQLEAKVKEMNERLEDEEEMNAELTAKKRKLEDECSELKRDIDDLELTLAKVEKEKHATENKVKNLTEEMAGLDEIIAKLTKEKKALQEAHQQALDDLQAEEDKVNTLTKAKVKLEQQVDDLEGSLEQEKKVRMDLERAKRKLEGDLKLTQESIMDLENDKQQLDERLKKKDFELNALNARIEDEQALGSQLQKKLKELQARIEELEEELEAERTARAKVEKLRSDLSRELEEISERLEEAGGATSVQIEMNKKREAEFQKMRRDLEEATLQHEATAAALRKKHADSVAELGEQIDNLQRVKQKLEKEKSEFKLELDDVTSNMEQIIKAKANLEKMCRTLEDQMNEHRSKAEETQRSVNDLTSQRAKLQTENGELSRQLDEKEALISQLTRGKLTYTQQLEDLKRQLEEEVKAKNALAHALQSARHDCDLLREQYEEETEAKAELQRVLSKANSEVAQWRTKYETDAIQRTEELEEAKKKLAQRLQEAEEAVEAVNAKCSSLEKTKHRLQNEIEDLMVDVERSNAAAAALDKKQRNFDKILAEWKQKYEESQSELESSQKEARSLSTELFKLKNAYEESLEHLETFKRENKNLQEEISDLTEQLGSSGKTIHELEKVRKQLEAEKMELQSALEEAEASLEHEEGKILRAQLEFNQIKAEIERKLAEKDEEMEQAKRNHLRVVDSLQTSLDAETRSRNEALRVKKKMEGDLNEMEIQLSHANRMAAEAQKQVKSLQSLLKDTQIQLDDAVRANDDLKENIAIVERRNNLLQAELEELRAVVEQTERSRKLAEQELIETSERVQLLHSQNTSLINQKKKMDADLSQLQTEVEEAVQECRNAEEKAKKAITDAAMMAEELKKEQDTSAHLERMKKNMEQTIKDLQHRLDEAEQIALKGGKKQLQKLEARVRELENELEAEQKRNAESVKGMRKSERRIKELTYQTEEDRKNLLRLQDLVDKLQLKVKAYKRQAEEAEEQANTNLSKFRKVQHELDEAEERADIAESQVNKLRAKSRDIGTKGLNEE
# Sequence of β-cardiac myosin (P08590 whole entry partner): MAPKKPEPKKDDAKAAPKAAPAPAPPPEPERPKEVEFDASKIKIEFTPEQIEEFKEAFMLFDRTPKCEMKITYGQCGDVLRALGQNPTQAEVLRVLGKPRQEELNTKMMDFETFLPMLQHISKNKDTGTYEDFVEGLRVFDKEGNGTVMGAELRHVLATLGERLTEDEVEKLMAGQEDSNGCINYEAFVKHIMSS
smiles,measurement,setting,value
"COc1ccc(C(=O)N2CCCc3cc(C4=NNC(=O)SC4C)ccc32)cc1OC (single isomer, unassigned; (+)) [EMD, (+)-5-(1-(3,4-Dimethoxybenzoyl)-1,2,3,4-tetrahydroquinolin-6-yl)-6-methyl-3,6-dihydro-2H-1,3,4-thiadiazin-2-one]","lowest dose tested, efficient at rescuing cyst formation",[1]; PKD1−/− and PKD2−/− mutant organoids,3 µM
same,Cyst diameter (mm),[1]; [13],0.12 ± 0.04 mm
same,Cystic organoids (%),[1]; [13],15 ± 6%
same,formation and size of resultant cysts,"[1]; pre-cystic organoids in suspension, versus untreated controls",effectively reduced the formation and size of the resultant cysts
same,efficacy on cysts in the presence of blebbistatin,[1]; with blebbistatin,effective even in the presence of blebbistatin
same,aqueous solubility,[2],5 µg/mL
same,size of pre-formed cysts,"[3]; late-stage PKD organoids (day 37), 5 μM",acute reduction in the size of pre-formed cysts
same,toxicity at these doses,[3]; late-stage PKD organoids,No overt toxicity
same,toxicity (phase-contrast morphology and live-dead analysis),[4],no significant toxicity
same,pKd,[5],5.14
same,metabolism by liver cells,[6],metabolized by liver cells into demethylated and/or hydroxylated forms by CYP-dependent mechanisms
same,AC50,[7],7 µM
same,Tmax,[8],~150 min
same,average Cmax,[8],~40 ng/mL
same,AC50,[9],15.1 µM
same,increase of non-cardiac myosin II activity,[10],three-fold
same,blood urea nitrogen levels (BUN),[11]; [14],reduced
same,kidney weight,[11]; [14],reduced
same,superficial (renal cortical) cysts by gross morphology,"[11]; 5 mg/kg intraperitoneally, four times over 2.5 weeks, five months of age",noticeably reduced superficial (renal cortical) cysts
same,BUN,[11]; [13],20 ± 5 mg/dL
same,kidney weight,[11]; [13],0.30 ± 0.1 g
same,alpha-SMA+ area (%),"[11]; expected value, WT control or EMD, Aim 2",25 ± 4%
same,fibrosis in the kidneys,[11]; [15],No fibrosis was observed
same,"survival, distress and adverse effects",[11]; [15],no adverse effects or mortality
same,"survival, distress and adverse effects","[11]; mouse, in vivo","all animals survived, and none showed any signs of distress"
same,"acute tubular necrosis, proximal tubules (LTL+)",[11]; treated kidneys,no evidence of acute tubular necrosis
same,cyst size in kidney sections,[11]; treated kidneys,smaller cysts
same,expression of smooth muscle alpha-actin,[11]; treated kidneys,reduced expression
same,effect,[12],↑ myosin
